Tests used:
[1] = tested on: E. coli cell-free transcription-translation system; type: biochemical; conditions: for IC50: read-out: IC50 for inhibition of protein synthesis (firefly luciferase)
[2] = tested on: E. coli cell-free transcription-translation system; type: biochemical; conditions: bacterial system

## SILPYPY [BLS26]
[1]
  stimulation of protein synthesis (luciferase): 20%

## SYPDLHL [BLS25]
[1]
  stimulation of protein synthesis (luciferase): 20%

## AMSAPIP [BLS18]
[1]
  IC50: 137 µM

## AGAAMSH [BLS15]
[1]
  inhibition of synthesis of GFP: shown to inhibit synthesis of GFP
  IC50: 15 µM
[2]; combination with streptomycin or other related antibiotics
  combination effect with antibiotic on inhibition of protein synthesis: synergistic action
[2]; in the presence of 3 μM streptomycin
  increase of potency in inhibiting protein synthesis: 25 fold
